Tests used:
IRE1a [1] = target: T1, IRE1a (Homo sapiens, UniProt O75460); experiment: In vitro FRET assay (XBP1 RNA probe cleavage by IRE1a); format: biochemical; set-up: purchased SignalChem; details: 2 nM IRE1a protein
Protocol: In vitro FRET assay was performed to evaluate the ability of select compounds to inhibit IRE1, the results of which are summarized in Table 3. To perform the in vitro FRET assay, 1× complete assay buffer (CAB; […], 50 mM sodium citrate pH 7.15, ImM magnesium acetate, 0.02% tween 20) was used to dilute SignalChem IRE1a protein to a final concentration of 2 nM. Selected compounds were serially diluted with DMSO in a non-binding black 384-well plate for a total of 15 ul in each well. 2 ul of the serially diluted compound or DMSO control were then added to new wells containing 98 ul of 1×CAB, for a total volume of 100 ul, 10 ul of which were then transferred to wells of a new plate. 5 ul of the diluted IRE1a was then added to each well. 5 ul of a […] XBP1 RNA probe was then added to each well. Fluorescence was then read over 30 minutes in kinetic mode (485/515 nm).
Two RNA probes were used, XBP1 wildtype (SEQ ID NO: 2) which is able to be spliced by active IRE1a or XBP1 mutant (SEQ ID NO: 3) which is unable to be spliced. Each probe contained a 5′ 6-FAM modification and a 3′ IOWA Black FQ modification. […]

IRE1a [2] = target: T1, IRE1a; experiment: IRE1a Endoribonuclease Nanoluciferase Assay (XBP1 luciferase reporter in 293T cells); format: cell-based; details: 293T cells transfected with XBP1 luciferase reporter, ER stressors +/- inhibitors
Protocol: Compounds disclosed herein were assessed for disruption of IRE1 signaling using a IRE1a Endoribonuclease Nanoluciferase Assay. Briefly, 2.5×10^6 293T cells were seeded in a 10 cm^2 tissue culture plate. About 24 hours later, the cells were transfected with Effectene. In a 15 mL Tube, the following was added: 2 ug XBP1 luciferase reporter plasmid (PGK-Luc2-P2A-XBP1u-Nanoluciferase-PEST); 300 ul EC buffer; and 16 ul Enhancer, followed by incubation at room temp for 5 minutes. Next, 60 ul Effectene (Qiagen 301427) was added, followed by incubation at room temperature for 10 minutes. 2.6 mL cDMEM media was added. Old media was aspirated from the cells, followed by addition of 7 mL fresh media. Full transfection mixture was added dropwise to cells. Cells were incubated for 6 hours, followed by trypsinization, centrifugation and resuspension in 11 mL media. 100 uL of cells were plated per a well in a 96 well plate. A day later, ER stressors of choice +/− inhibitors were added. To harvest, media was aspirated from cells completely, then 50 uL 1× passive lysis buffer (Promega: E1941) was added per well and put on shaker (300 rpm) for 30 minutes at room temperature. Cells were centrifuged, and 15 uL sample per well was added to a new, opaque white 384 well plate (Corning 3570). 15 uL OneGlo (nanoluciferase kit, Promega N1630) was added. Plates were spun down, placed on shaker (300 rpm) for 10 minutes. Plates were read on luminometer, 1000 ms integration time per well. 15 uL Stop and Glo (nanoluciferase kit) was added. Plates were spun down, placed on shaker (300 rpm) for 10 minutes. Plates were read on luminometer, 1000 ms second integration time per well. Recordings are provided below in Table 4.

T1 sequence (O75460 19-977): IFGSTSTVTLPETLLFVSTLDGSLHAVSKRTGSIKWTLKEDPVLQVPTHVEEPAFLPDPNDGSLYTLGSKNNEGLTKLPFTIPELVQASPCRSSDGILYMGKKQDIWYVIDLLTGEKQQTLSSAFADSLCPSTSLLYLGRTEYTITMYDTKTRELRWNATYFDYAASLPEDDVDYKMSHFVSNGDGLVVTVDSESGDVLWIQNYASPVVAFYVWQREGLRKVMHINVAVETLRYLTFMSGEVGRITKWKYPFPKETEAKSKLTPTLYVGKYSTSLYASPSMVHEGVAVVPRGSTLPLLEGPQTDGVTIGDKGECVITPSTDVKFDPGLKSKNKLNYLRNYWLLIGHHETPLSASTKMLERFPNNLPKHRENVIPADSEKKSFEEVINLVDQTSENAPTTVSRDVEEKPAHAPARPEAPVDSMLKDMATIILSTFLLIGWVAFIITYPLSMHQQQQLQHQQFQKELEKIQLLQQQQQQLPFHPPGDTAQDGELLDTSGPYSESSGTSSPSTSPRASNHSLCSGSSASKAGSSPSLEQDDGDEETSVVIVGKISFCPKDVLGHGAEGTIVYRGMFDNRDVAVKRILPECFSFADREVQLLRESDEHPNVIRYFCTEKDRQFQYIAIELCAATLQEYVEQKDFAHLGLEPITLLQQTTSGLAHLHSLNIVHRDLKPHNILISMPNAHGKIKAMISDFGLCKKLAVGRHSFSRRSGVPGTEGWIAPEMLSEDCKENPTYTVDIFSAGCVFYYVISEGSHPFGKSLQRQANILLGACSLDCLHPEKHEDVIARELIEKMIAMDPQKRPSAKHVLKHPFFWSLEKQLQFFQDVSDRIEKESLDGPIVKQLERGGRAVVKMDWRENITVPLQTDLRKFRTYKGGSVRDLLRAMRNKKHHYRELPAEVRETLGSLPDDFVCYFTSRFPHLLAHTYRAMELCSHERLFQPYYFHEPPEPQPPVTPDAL

Row | SMILES | IC50 (IRE1a [1]) [nM] | EC50 (IRE1a [2]) [nM]
1 | CCc1cc(-c2ccc(NS(=O)(=O)c3ccccc3Cl)cc2C(F)(F)F)cc2cnc(N[C@H]3CC[C@H](N)CC3)nc12 [14; Formic Acid] | > 100 | 
2 | CCc1cc(-c2ccc(NS(=O)(=O)c3ccccc3)cc2C)cc2cnc(N[C@H]3CC[C@H](N)CC3)nc12 [15; Formic Acid] | > 100 | 
3 | CCc1cc(-c2ccc(NS(=O)(=O)c3ccccc3Cl)cc2Cl)cc2cnc(N[C@H]3CC[C@H](N)CC3)nc12 [17; Formic Acid] | > 100 | 
4 | N[C@H]1CC[C@H](Nc2ncc3cc(-c4ccc(NS(=O)(=O)c5ccccc5Cl)cc4)ccc3n2)CC1 [26; Formic Acid] | ≤ 5 | ≤ 5
5 | Cc1cc(N(C)S(=O)(=O)c2ccccc2Cl)ccc1-c1cc(O)c2nc(N[C@H]3CC[C@H](N)CC3)ncc2c1 [30; Formic Acid] | 50 to 100 | 
6 | CCc1cc(-c2ccc(N(C)S(=O)(=O)c3ccccc3Cl)cc2C)cc2cnc(N[C@H]3CC[C@H](N)CC3)nc12 [31; Formic Acid] | > 100 | 
7 | COc1cc(-c2ccc(NS(=O)(=O)c3ccccc3Cl)cc2C)cc2cnc(N[C@H]3CC[C@H](N)CC3)nc12 [36; Formic Acid] | ≤ 5 | 
8 | CCc1cc(-c2sc(NS(=O)(=O)c3ccccc3Cl)nc2C)cc2cnc(N[C@H]3CC[C@H](N)CC3)nc12 [38; Formic Acid] | ≤ 5 | 
9 | CCc1cc(-c2cnc(NS(=O)(=O)c3ccccc3Cl)nc2)cc2cnc(N[C@H]3CC[C@H](N)CC3)nc12 [39; Formic Acid] | ≤ 5 | 
10 | CC(C)c1cc(-c2cc(NS(=O)(=O)c3ccccc3Cl)nn2C)cc2cnc(N[C@H]3CC[C@H](N)CC3)nc12 [40; Formic Acid] | ≤ 5 | 
11 | CCc1cc(-c2cnc(NS(=O)(=O)c3ccccc3Cl)s2)cc2cnc(N[C@H]3CC[C@H](N)CC3)nc12 [41; Formic Acid] | ≤ 5 | 
12 | CCc1cc(-c2cc(F)c(NS(=O)(=O)c3ccccc3Cl)cc2OC)cc2cnc(N[C@H]3CC[C@H](N)CC3)nc12 [42; Formic Acid] | ≤ 5 | 
13 | CCc1cc(-n2cc(NS(=O)(=O)c3ccccc3Cl)cn2)cc2cnc(N[C@H]3CC[C@H](N)CC3)nc12 [43; Formic Acid] | ≤ 5 | 
14 | CCc1cc(-c2cc(NS(=O)(=O)c3ccccc3Cl)no2)cc2cnc(N[C@H]3CC[C@H](N)CC3)nc12 [44; Formic Acid] | ≤ 5 | ≤ 5
15 | COc1cc(-c2cc(NS(=O)(=O)c3ccccc3Cl)nn2C)cc2cnc(N[C@H]3CC[C@H](N)CC3)nc12 [45; Formic Acid] | 50 to 100 | 
16 | CCCc1cc(-c2cc(NS(=O)(=O)c3ccccc3Cl)nn2C)cc2cnc(N[C@H]3CC[C@H](N)CC3)nc12 [47; Formic Acid] | ≤ 5 | 5 to 50
17 | N[C@H]1CC[C@H](Nc2ncc3cc(-c4ccc(NS(=O)(=O)c5ccccc5Cl)cc4F)ccc3n2)CC1 [48; Formic Acid] | ≤ 5 | 5 to 50
18 | N[C@H]1CC[C@H](Nc2ncc3cc(-c4ccc(NS(=O)(=O)c5ccccc5Cl)nn4)ccc3n2)CC1 [49; Formic Acid] | ≤ 5 | 
19 | N[C@H]1CC[C@H](Nc2ncc3cc(-c4ccc(NS(=O)(=O)c5ccccc5Cl)c(F)c4)ccc3n2)CC1 [50; Formic Acid] | ≤ 5 | 
20 | N[C@H]1CC[C@H](Nc2ncc3cc(-c4ncc(NS(=O)(=O)c5ccccc5Cl)cc4F)ccc3n2)CC1 [51; Formic Acid] | ≤ 5 | 50 to 100
21 | N[C@H]1CC[C@H](Nc2ncc3cc(-c4cnc(NS(=O)(=O)c5ccccc5Cl)c(F)c4)ccc3n2)CC1 [54; Formic Acid] | ≤ 5 | 5 to 50
22 | N[C@H]1CC[C@H](Nc2ncc3cc(-c4ccc(NS(=O)(=O)c5ccccc5Cl)c(F)c4F)ccc3n2)CC1 [56; Formic Acid] | ≤ 5 | ≤ 5

Row | SMILES | IC50 (IRE1a [1]) [nM] | EC50 (IRE1a [2]) [nM]
23 | N[C@H]1CC[C@H](Nc2cc3ccc(-c4ccc(NS(=O)(=O)c5ccccc5Cl)c(F)c4)cc3cn2)CC1 [57; Formic Acid] | ≤ 5 | ≤ 5
24 | CCc1cc(-c2ccc(NS(=O)(=O)c3ccccc3Cl)c(F)c2)cc2cnc(N[C@H]3CC[C@H](NC(=O)[C@@H](N)C(C)C)CC3)nc12 [58; Formic Acid] | 5 to 50 | ≤ 5
25 | CCc1cc(-c2ccc(NS(=O)(=O)c3ccccc3Cl)c(F)c2)cc2cnc(N[C@H]3CC[C@H](NC(C)=O)CC3)nc12 [59; Formic Acid] | 5 to 50 | 50 to 100
26 | CCc1cc(-c2ccc(NS(=O)(=O)c3ccccc3Cl)c(F)c2)cc2cnc(N[C@H]3CC[C@H](NC)CC3)nc12 [60; Formic Acid] | ≤ 5 | ≤ 5
27 | N[C@H]1CC[C@H](Nc2ncc3cc(-c4c(F)cc(NS(=O)(=O)c5ccccc5Cl)cc4F)ccc3n2)CC1 [62; Formic Acid] | ≤ 5 | 5 to 50
28 | CCc1cc(-c2cc(F)c(NS(=O)(=O)c3ccccc3Cl)c(F)c2)cc2cnc(N[C@H]3CC[C@H](N)CC3)nc12 [63; Formic Acid] | ≤ 5 | 
29 | CCc1cc(-c2cc(OC)c(NS(=O)(=O)c3ccccc3Cl)nn2)cc2cnc(N[C@H]3CC[C@H](N)CC3)nc12 [66; Formic Acid] | ≤ 5 | 50 to 100
30 | CCc1cc(NS(=O)(=O)c2ccccc2Cl)nnc1-c1cc(CC)c2nc(N[C@H]3CC[C@H](N)CC3)ncc2c1 [96; Formic Acid] | ≤ 5 | 
31 | CCc1cc(-c2ccc(NS(=O)(=O)c3ccccc3Cl)nc2OC)cc2cnc(N[C@H]3CC[C@H](O)CC3)nc12 [101; Formic Acid] | 5 to 50 | 
32 | CCc1nc(NS(=O)(=O)c2ccccc2Cl)ccc1-c1cc2cnc(N[C@H]3CC[C@H](N)CC3)nc2cc1C [105; Formic Acid] | ≤ 5 | 
33 | Cc1cc2nc(N[C@H]3CC[C@H](N)CC3)ncc2cc1-c1ccc(NS(=O)(=O)c2ccccc2Cl)nc1C [106; Formic Acid] | ≤ 5 | 
34 | COc1nc(NS(=O)(=O)c2ccccc2Cl)ccc1-c1ccc2nc(N[C@H]3CC[C@H](N)CC3)ncc2c1C [114; Formic Acid] | 5 to 50 | 
35 | CCc1cc(-c2ccc(NS(=O)(=O)c3ccccc3Cl)nc2OC)cc2cnc(N[C@H]3CC[C@@H](N)CC3)nc12 [140; Formic Acid] | ≤ 5 | 
36 | CCc1cc(-c2ccc(NS(=O)(=O)c3ccccc3Cl)nc2OC)cc2cnc(NC3CCC(C)(N(C)C)CC3)nc12 (stereo not drawn) [143; Formic Acid] | 5 to 50 | 
37 | CCc1cc(-c2cc(F)c(NS(=O)(=O)c3ccccc3Cl)nc2OC)cc2cnc(N[C@H]3CC[C@@](C)(N(C)C)CC3)nc12 [144; Formic Acid] | 50 to 100 | 
38 | COc1nc(NS(=O)(=O)c2ccccc2Cl)c(F)cc1-c1cc(C)c2nc(N[C@H]3CC[C@@H](N)CC3)ncc2c1 [146; Formic Acid] | ≤ 5 | 
39 | CCc1cc(-c2ccc(NS(=O)(=O)c3ccccc3C(F)(F)F)cc2C)cc2cnc(N[C@H]3CC[C@H](N)CC3)nc12 [Compound 7, N-(4-(2-(((1r,4r)-4-aminocyclohexyl)amino)-8-ethylquinazolin-6-yl)-3-methylphenyl)-2-(trifluoromethyl)benzenesulfonamide] | 5 to 50 | 
40 | CCc1cc(-c2ccc(NS(=O)(=O)c3ccccc3OC(F)(F)F)cc2C)cc2cnc(N[C@H]3CC[C@H](N)CC3)nc12 [Compound 8, N-(4-(2-(((1r,4r)-4-aminocyclohexyl)amino)-8-ethylquinazolin-6-yl)-3-methylphenyl)-2-(trifluoromethoxy)benzenesulfonamide] | 5 to 50 | 
41 | CCc1cc(-c2ccc(NS(=O)(=O)c3cc(Cl)ccc3Cl)cc2C)cc2cnc(N[C@H]3CC[C@H](N)CC3)nc12 [Compound 9, N-(4-(2-(((1r,4r)-4-aminocyclohexyl)amino)-8-ethylquinazolin-6-yl)-3-methylphenyl)-2,5-dichlorobenzenesulfonamide] | ≤ 5 | 
42 | CCc1cc(-c2ccc(NS(=O)(=O)c3ccccc3F)cc2C)cc2cnc(N[C@H]3CC[C@H](N)CC3)nc12 [Compound 10, N-(4-(2-(((1r,4r)-4-aminocyclohexyl)amino)-8-ethylquinazolin-6-yl)-3-methylphenyl)-2-fluorobenzenesulfonamide] | ≤ 5 | 
43 | CCc1cc(-c2ccc(NS(=O)(=O)c3ccc(Cl)cc3)cc2C)cc2cnc(N[C@H]3CC[C@H](N)CC3)nc12 [Compound 12] | > 100 | 
44 | CCc1cc(-c2ccc(NS(=O)(=O)c3ccccc3OC)cc2C)cc2cnc(N[C@H]3CC[C@H](N)CC3)nc12 [Compound 13] | > 100 | 

— patent publication US20180346446A1, “IRE1 SMALL MOLECULE INHIBITORS” (QUENTIS THERAPEUTICS, INC., priority 2017, published 2018)
